Data on 12 compounds can be found in patent US20230312550A1, “N-(2-(4-CYANOTHIAZOLIDIN-3-YL)-2-OXOETHYL)-QUINOLINE-4-CARBOXAMIDES” (AstraZeneca AB, priority 2020, published 2023).

pIC50, pKd: −log10 of the molar value. In brackets after ≈: the same amount, converted by molar mass.

In data set [1] the target is FAP (Homo sapiens (Human), UniProt Q12884). Put plainly: hFAP inhibition assay. Format: biochemical. The conditions noted are these: Ala-Pro-AMC 20 μM, n = 1 or geometric mean n = 2-3. As for the experimental part: 384 low volume black plates (Greiner #784076) were used. 4 μL, 0.48 nM enzyme solution (100 mM Tris HCl, 100 mM NaCl, 0.05% Chaps, pH 7.4) was added to 40 nL compounds (in DMSO) at 10 CR, 3 fold dilution series from 50 μM FAC. Plates were incubated for 15 min at rt in dark. 4 μL, 40 μM substrate solution (100 mM Tris HCl, 100 mM NaCl, 0.05% Chaps, pH 7.4) was added to each well. Plates were centrifuged at 1000 rpm and incubated for 30 min at rt in dark. The plates were read on a PHERAstar® reader with excitation 340 nm and emission 460 nm. Data were analyzed in Genedata Screener®. IC50 values were determined by plotting % inhibition versus log compound concentration and using a one site dose response model.
Chain of FAP (Q12884 38-760): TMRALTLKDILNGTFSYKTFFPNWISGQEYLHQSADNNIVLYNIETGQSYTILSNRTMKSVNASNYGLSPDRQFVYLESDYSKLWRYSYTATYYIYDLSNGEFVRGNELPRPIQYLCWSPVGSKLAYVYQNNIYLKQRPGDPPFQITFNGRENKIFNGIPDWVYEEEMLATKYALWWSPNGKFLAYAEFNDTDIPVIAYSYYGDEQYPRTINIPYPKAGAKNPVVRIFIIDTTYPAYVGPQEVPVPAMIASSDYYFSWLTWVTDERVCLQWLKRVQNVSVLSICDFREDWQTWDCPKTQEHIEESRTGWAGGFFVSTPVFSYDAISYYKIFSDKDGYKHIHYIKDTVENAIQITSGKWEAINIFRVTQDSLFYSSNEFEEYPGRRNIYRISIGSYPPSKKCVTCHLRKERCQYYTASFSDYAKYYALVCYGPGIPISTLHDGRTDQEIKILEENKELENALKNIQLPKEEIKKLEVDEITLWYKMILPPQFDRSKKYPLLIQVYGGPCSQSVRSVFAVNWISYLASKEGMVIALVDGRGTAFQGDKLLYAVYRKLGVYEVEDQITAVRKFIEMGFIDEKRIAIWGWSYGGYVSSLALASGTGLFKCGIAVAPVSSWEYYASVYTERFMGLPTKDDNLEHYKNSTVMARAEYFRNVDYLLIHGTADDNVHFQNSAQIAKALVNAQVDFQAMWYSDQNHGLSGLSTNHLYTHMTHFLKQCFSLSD

The target of data set [2] is human Fibroblast activation protein alpha (hFAP) (Homo sapiens (Human), UniProt Q12884). Kind of data set: hFAP inhibition assay (tight binders). Note: hFAP 2.4 pM. In kind it is biochemical. The conditions noted are these: Ala-Pro-AMC 20 μM, n = 1 or geometric mean n = 2-6. As for the experimental part:
The plates were read on a PHERAstar® reader with excitation 340 nm and emission 460 nm. Data were analyzed in Genedata Screener®. IC50 values were determined by plotting % inhibition versus log compound concentration and using a one site dose response model.

Data set [3] addresses hFAP (M39-A757) (Homo sapiens (Human), UniProt Q12884). Kind of data set: hFAP binding assay (surface plasmon resonance). The conditions noted are these: SPR, 20° C.; for hFAP Binding assay k(off) / hFAP Binding assay k(on): single cycle kinetics; for pKd: n = 1 or geometric mean n = 2-4. For orientation: In SPR one partner is held on a chip, and binding of the other changes the refractive index at the surface.

Data set [4] has as its target Prolyl endopeptidase, Prolyl Oligopeptidase (hPREP) (Homo sapiens (Human), UniProt P48147). Put plainly: hPrep inhibition assay. In kind it is biochemical. The conditions noted are these: hPREP 0.6 nM, Z-Gly-Pro-amino-methylcoumarin 50 μM; read-out: PREP IC50. In a few lines:
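Recombinant human PREP at 0.6 nM final with Z-Gly-Pro-AMC substrate at 50 μM final in Tris-HCl pH 7.5, NaCl, Triton X-100, glutathione; 15 min rt preincubation then 20 min rt reaction in dark. AMC fluorescence (ex 340/em 460 nm); IC50 from one-site dose-response fit of % inhibition.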

Data set [5] in a line: Kinetic solubility. The settings on record: kinetic from dmso stock.
Experimental: Kinetic solubility was measured as described in Comput Aided Mol Des 2015, 29, 795.
A short description of data set [6]: Metabolic stability in rat hepatocytes (rHep). The settings on record: n = 1 or geometric mean of n = 2-3.
Data set [7] can be described thus: Metabolic stability in human liver microsomes (HLM). The conditions noted are these: human.
Experimental: Metabolic stability in HLM was measured as described in J Comput Aided Mol Des 2015, 29, 795.
[8] abbreviates: Solubility, kinetic solubility, n = 1 or average of n = 2-3.
Setting [9] is: HLM CLint, n = 1 or average of n = 2-3.

Chain of hFAP (M39-A757) (Q12884 39-757): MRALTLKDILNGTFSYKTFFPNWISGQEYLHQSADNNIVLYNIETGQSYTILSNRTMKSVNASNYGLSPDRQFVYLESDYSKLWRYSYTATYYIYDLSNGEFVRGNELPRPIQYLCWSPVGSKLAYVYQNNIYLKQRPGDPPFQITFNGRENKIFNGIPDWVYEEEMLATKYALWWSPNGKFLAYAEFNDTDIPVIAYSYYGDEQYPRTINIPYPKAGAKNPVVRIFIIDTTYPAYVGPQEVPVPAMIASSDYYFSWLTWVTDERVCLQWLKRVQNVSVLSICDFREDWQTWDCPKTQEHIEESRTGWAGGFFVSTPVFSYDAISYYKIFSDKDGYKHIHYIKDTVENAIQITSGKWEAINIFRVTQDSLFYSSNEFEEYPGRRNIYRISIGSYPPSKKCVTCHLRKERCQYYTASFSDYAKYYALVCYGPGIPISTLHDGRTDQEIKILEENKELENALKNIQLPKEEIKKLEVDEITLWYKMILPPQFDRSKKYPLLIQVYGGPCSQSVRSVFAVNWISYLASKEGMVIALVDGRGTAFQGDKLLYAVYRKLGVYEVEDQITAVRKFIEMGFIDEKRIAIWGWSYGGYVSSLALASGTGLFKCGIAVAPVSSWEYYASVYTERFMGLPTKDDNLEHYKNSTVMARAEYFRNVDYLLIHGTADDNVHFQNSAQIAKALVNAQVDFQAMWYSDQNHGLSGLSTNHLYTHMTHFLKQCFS
Chain of human Fibroblast activation protein alpha (hFAP) (Q12884 38-760): as the sequence (Q12884 38-760) above
Chain of Prolyl endopeptidase, Prolyl Oligopeptidase (hPREP) (P48147 whole entry): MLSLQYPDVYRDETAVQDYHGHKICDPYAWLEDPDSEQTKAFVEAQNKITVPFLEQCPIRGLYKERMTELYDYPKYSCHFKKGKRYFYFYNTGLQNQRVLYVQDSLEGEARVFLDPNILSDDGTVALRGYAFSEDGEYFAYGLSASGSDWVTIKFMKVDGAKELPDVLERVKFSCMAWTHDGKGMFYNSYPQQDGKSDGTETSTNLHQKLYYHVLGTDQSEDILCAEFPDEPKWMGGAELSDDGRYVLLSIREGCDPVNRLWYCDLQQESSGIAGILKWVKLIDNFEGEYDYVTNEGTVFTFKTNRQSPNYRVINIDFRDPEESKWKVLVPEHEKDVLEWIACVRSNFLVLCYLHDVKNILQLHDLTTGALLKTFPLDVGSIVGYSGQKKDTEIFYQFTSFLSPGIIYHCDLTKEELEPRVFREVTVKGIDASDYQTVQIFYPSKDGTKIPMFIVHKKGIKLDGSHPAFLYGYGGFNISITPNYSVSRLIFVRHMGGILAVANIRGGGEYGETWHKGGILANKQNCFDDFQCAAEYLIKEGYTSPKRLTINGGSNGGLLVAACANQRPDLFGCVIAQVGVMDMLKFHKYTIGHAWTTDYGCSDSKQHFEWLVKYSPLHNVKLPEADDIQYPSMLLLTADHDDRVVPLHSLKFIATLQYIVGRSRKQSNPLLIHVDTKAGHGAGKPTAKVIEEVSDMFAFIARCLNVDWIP

For the compound `C[C@H]1CCCN1c1ccc2nccc(C(=O)NCC(=O)N3CSC[C@H]3C#N)c2c1` [Example 65, N-(2-((R)-4-Cyanothiazolidin-3-yl)-2-oxoethyl)-6-((S)-2-methylpyrrolidin-1-yl)quinoline-4-carboxamide], the pIC50 (usually −log10 of the IC50, conventionally taken in molar units) is 9.55 in data set [1] (hFAP […]), 9.77 in data set [2] and 7.00 in data set [4]. Further, in data set [3], the “hFAP Binding assay k(off)” value amounted to 0.00047 s⁻¹. Moreover, in data set [3], the “hFAP Binding assay k(on)” value was 6700000 M⁻¹ s⁻¹. For the same compound, the pKd (commonly −log10 of the Kd, conventionally taken in molar units) in data set [3] was 10.26. Besides, the solubility (in general, how much of the substance goes into solution per volume) in data set [5] (setting [8]) came out at 49 µM (≈ 20.1 µg/mL). In data set [6], the “rHep CLint” value was determined as 110 μL/min/1E6. The microsomal CLint (in general, the rate of metabolic loss divided by the concentration) in data set [7] (setting [9]) was 150 µL/min/mg.
Turning to `CC1(C)CCCN1c1ccc2nccc(C(=O)NCC(=O)N3CSC[C@H]3C#N)c2c1` [Example 57, (R)—N-(2-(4-Cyanothiazolidin-3-yl)-2-oxoethyl)-6-(2,2-dimethylpyrrolidin-1-yl)quinoline-4-carboxamide], the pIC50 in data set [1] (hFAP […]) is 9.59. Besides, in data set [2], the pIC50 is 10.01. For the same compound, in data set [3], the “hFAP Binding assay k(off)” value stood at 0.00018 s⁻¹, the “hFAP Binding assay k(on)” value worked out at 8000000 M⁻¹ s⁻¹ and the pKd was 10.66. Besides, the pIC50 in data set [4] was 6.80. The compound also came in with a solubility in data set [5] (setting [8]) of 150 µM (≈ 63.5 µg/mL). For the same compound, the “rHep CLint” value in data set [6] is on record as >300 μL/min/1E6. The microsomal CLint in data set [7] (setting [9]) is > 300 µL/min/mg.
As to `N#C[C@@H]1CSCN1C(=O)CNC(=O)c1ccnc2ccc(N3CCC(F)(F)CC3)cc12` [Example 35, (R)—N-(2-(4-Cyanothiazolidin-3-yl)-2-oxoethyl)-6-(4,4-difluoropiperidin-1-yl)quinoline-4-carboxamide], the results for the pIC50 in data set [1] (hFAP […]), in data set [2] and in data set [4] were 9.33, 9.77 and 5.77, respectively. Besides, the “hFAP Binding assay k(off)” value in data set [3] was determined as 0.00010 s⁻¹. The “hFAP Binding assay k(on)” value in data set [3] turned out to be 900000 M⁻¹ s⁻¹. For the same compound, the pKd in data set [3] was 10.00. Also, the solubility in data set [5] (setting [8]) came to 600 µM (≈ 267 µg/mL). The “rHep CLint” value in data set [6] is 64 μL/min/1E6. Further, the microsomal CLint in data set [7] (setting [9]) stood at 63 µL/min/mg.
In data set [1] (hFAP […]), `N#C[C@@H]1CSCN1C(=O)CNC(=O)c1ccnc2ccc(N3CC4CCCC4C3)cc12` (stereo partly drawn) [Example 53, N-(2-((R)-4-Cyanothiazolidin-3-yl)-2-oxoethyl)-6-(hexahydrocyclopenta[c]pyrrol-2(1H)-yl)quinoline-4-carboxamide] had a negative-log IC50 (pIC50) of 9.57. In data set [2], this compound showed a pIC50 of 9.74. Further, in data set [3], the “hFAP Binding assay k(off)” value was determined as 0.000050 s⁻¹, the “hFAP Binding assay k(on)” value turned out to be 680000 M⁻¹ s⁻¹ and the pKd is 10.13. In addition, the pIC50 in data set [4] is 6.77. In data set [5] (setting [8]), this compound had a solubility of 2.6 µM (≈ 1.13 µg/mL). Moreover, the “rHep CLint” value in data set [6] was 71 μL/min/1E6. The same compound registered a microsomal CLint in data set [7] (setting [9]) of 120 µL/min/mg.
`CC1(CF)CCN(c2ccc3nccc(C(=O)NCC(=O)N4CSC[C@H]4C#N)c3c2)CC1` [Example 37, (R)—N-(2-(4-Cyanothiazolidin-3-yl)-2-oxoethyl)-6-(4-(fluoromethyl)-4-methylpiperidin-1-yl)quinoline-4-carboxamide] showed a pIC50 in data set [1] (hFAP […]) of 9.66. In data set [2], this compound had a pIC50 of 9.72. Moreover, in data set [3], the “hFAP Binding assay k(off)” value amounted to 0.000030 s⁻¹, the “hFAP Binding assay k(on)” value turned out to be 1000000 M⁻¹ s⁻¹ and the pKd was 10.55. Besides, the pIC50 in data set [4] was 6.57. The solubility in data set [5] (setting [8]) came to 210 µM (≈ 95.7 µg/mL). Besides, the “rHep CLint” value in data set [6] worked out at 30 μL/min/1E6. In data set [7] (setting [9]), this compound returned a microsomal CLint of 66 µL/min/mg.
Turning to `Cc1ccc(C2CN(c3ccc4nccc(C(=O)NCC(=O)N5CSC[C@H]5C#N)c4c3)C2)cc1` [Example 183, (R)—N-(2-(4-Cyanothiazolidin-3-yl)-2-oxoethyl)-6-(3-(p-tolyl)azetidin-1-yl)quinoline-4-carboxamide], the pIC50 is 9.48 in data set [1] (hFAP […]), 9.72 in data set [2] and 6.85 in data set [4]. Moreover, in data set [3], the pKd was 10.07. In data set [5] (setting [8]), the concentration in solution (solubility) was 19 µM (≈ 8.96 µg/mL). Further, in data set [6], the “rHep CLint” value amounted to 19 μL/min/1E6. The microsomal CLint in data set [7] (setting [9]) stood at 49 µL/min/mg.
With `N#C[C@@H]1CSCN1C(=O)CNC(=O)c1ccnc2ccc(N3CCC34CCC4)cc12` [Example 19, (R)—N-(2-(4-Cyanothiazolidin-3-yl)-2-oxoethyl)-6-(1-azaspiro[3.3]heptan-1-yl)quinoline-4-carboxamide], in data set [1] (hFAP […]), the pIC50 was 9.18. This compound gave a pIC50 in data set [2] of 9.42. In data set [3], the “hFAP Binding assay k(off)” value came to 0.000066 s⁻¹, the “hFAP Binding assay k(on)” value was 430000 M⁻¹ s⁻¹ and the pKd is 9.82. Also, the pIC50 in data set [4] was 6.80. In addition, the solubility in data set [5] is 480 µM (≈ 202 µg/mL). Besides, the “rHep CLint” value in data set [6] is recorded as 63 μL/min/1E6. This compound registered a microsomal CLint in data set [7] of 190 µL/min/mg.
`N#C[C@@H]1CSCN1C(=O)CNC(=O)c1ccnc2ccc(N3CC[C@H](F)C3)cc12` [Example 51, N-(2-((R)-4-Cyanothiazolidin-3-yl)-2-oxoethyl)-6-((S)-3-fluoropyrrolidin-1-yl)quinoline-4-carboxamide]: the pIC50 in data set [1] (hFAP […]) is 9.68; in data set [2], 10.19; in data set [4], 6.89. Besides, the “hFAP Binding assay k(off)” value in data set [3] came to 0.00011 s⁻¹. Besides, the “hFAP Binding assay k(on)” value in data set [3] came to 5600000 M⁻¹ s⁻¹. In addition, the pKd in data set [3] was 10.68. This compound also showed a solubility in data set [5] (setting [8]) of 56 µM (≈ 23.2 µg/mL). Also, in data set [6], the “rHep CLint” value is reported as 24 μL/min/1E6. For the same compound, the microsomal CLint in data set [7] (setting [9]) was 14 µL/min/mg.
Take `C[C@H]1CCN(c2ccc3nccc(C(=O)NCC(=O)N4CSC[C@H]4C#N)c3c2)C1` [Example 54, N-(2-((R)-4-Cyanothiazolidin-3-yl)-2-oxoethyl)-6-((S)-3-methylpyrrolidin-1-yl)quinoline-4-carboxamide]: the results for the pIC50 in data set [1] (hFAP […]), in data set [2] and in data set [4] were 9.66, 10.21 and 6.52, respectively. Further, in data set [3], the “hFAP Binding assay k(off)” value was found to be 0.00023 s⁻¹. Also, the “hFAP Binding assay k(on)” value in data set [3] was determined as 6200000 M⁻¹ s⁻¹. The same compound had a pKd in data set [3] of 10.35. In data set [5] (setting [8]), this compound returned a solubility of 13 µM (≈ 5.32 µg/mL). The “rHep CLint” value in data set [6] is recorded as 49 μL/min/1E6. Also, in data set [7] (setting [9]), the microsomal CLint was found to be 57 µL/min/mg.
In data set [1] (hFAP […]), `N#C[C@@H]1CSCN1C(=O)CNC(=O)c1ccnc2ccc(N3CCCC(F)(F)C3)cc12` [Example 36, (R)—N-(2-(4-Cyanothiazolidin-3-yl)-2-oxoethyl)-6-(3,3-difluoropiperidin-1-yl)quinoline-4-carboxamide] gave a pIC50 of 9.62. The pIC50 in data set [2] is 10.08. In data set [3], the “hFAP Binding assay k(off)” value turned out to be 0.000090 s⁻¹, the “hFAP Binding assay k(on)” value was 3000000 M⁻¹ s⁻¹ and the pKd was 10.28. In addition, in data set [4], the pIC50 is 6.40. For the same compound, in data set [5] (setting [8]), the solubility was < 98 µM. Moreover, the “rHep CLint” value in data set [6] worked out at 19 μL/min/1E6. In addition, the microsomal CLint in data set [7] (setting [9]) stood at 48 µL/min/mg.
`C[C@H]1CC(F)(F)CCN1c1ccc2nccc(C(=O)NCC(=O)N3CSC[C@H]3C#N)c2c1` (mixture of isomers) [Example 44, N-(2-((R)-4-Cyanothiazolidin-3-yl)-2-oxoethyl)-6-((RS)-4,4-difluoro-2-methylpiperidin-1-yl)quinoline-4-carboxamide]: the pIC50 in data set [1] (hFAP 0.24 nM) is 9.66. The compound also gave a pIC50 in data set [2] of 10.13. Also, in data set [3], the “hFAP Binding assay k(off)” value turned out to be 0.000072 s⁻¹, the “hFAP Binding assay k(on)” value was found to be 1700000 M⁻¹ s⁻¹ and the negative logarithm of the Kd (pKd) was 10.38. Also, in data set [4], the pIC50 is 6.27. Besides, the solubility in data set [5] (setting [8]) was determined as 140 µM. Also, the “rHep CLint” value in data set [6] is reported as 160 μL/min/1E6. In data set [7] (setting [9]), this compound displayed a microsomal CLint of 220 µL/min/mg.
As to `N#C[C@@H]1CSCN1C(=O)CNC(=O)c1ccnc2ccc(N3CC4CC4C3)cc12` (stereo partly drawn) [Example 206, 6-(3-Azabicyclo[3.1.0]hexan-3-yl)-N-(2-((R)-4-cyanothiazolidin-3-yl)-2-oxoethyl)quinoline-4-carboxamide], the pIC50 in data set [1] (hFAP […]) is 9.66; in data set [2], 10.19; in data set [4], 6.48. The compound further gave a pKd in data set [3] of 10.48. The concentration in solution in data set [5] (setting [8]) (solubility) was 26 µM (≈ 10.6 µg/mL). Further, the “rHep CLint” value in data set [6] was found to be 130 μL/min/1E6. In data set [7] (setting [9]), the microsomal CLint amounted to 46 µL/min/mg.
